Read-outs that look alike come from different tables or passages of the source. Where only a bound is given, the exact number is not on record here.

Data set [1] has as its system MDCK (Madin–Darby canine kidney) cells. The data set is described as follows: MTT toxicity evaluation, MDCK. The class given is cell-based. As to conditions: 72 h treatment, non-tumor cells, read-out: Half Maximal Inhibitory Concentration (IC50) MDCK. On the procedure: (§1) The cytotoxicity of hederagenin derivatives in vitro was evaluated on three tumor cell lines (A549: human non-small-cell lung cancer; MCF-7: human mammary cancer; HepG2: human hepatocellular carcinoma) using the 3-(4,5-dimethylthiazol-2-yl)-2,5-diphenyltetrazolium bromide (MTT) assay. In addition, their toxicity evaluations were tested on H9c2 (murine heart myoblast) and MDCK (Madin–Darby canine kidney) cells. MCF-7, A549, HepG2, H9c2, and MDCK cells were obtained from the Chinese Academy of Medical Sciences and Peking Union Medical College. All of the cell lines were maintained in Dulbecco’s modified Eagle medium (DMEM) supplemented with 1% (v/v) penicillin/streptomycin and 10% (v/v) fetal bovine serum (FBS; Thermo Technologies, New York, NY, USA) under a humidified atmosphere containing 5% CO2 at 37 °C. The stock solutions of He derivatives were dissolved in dimethyl sulfoxide (DMSO; Sigma, St. Louis, MO, USA) and added at various concentrations to the cell culture. Cellular morphologies were observed using an inverted fluorescence microscope (Olympus IX71, Tokyo, Japan), a plate reader (BIORAD 550 spectrophotometer, Bio-rad Life Science Development Ltd., Beijing, China), and a Canton 2 flow cytometer (BD, New York, NY, USA). The antitumor activity of these compounds were evaluated on MCF-7, A549, HepG2, MDCK, and H9c2 cell lines using the MTT assay. Cells at a density of 3 × 10^3 cells/well were plated in a 96-multiwell plate in DMEM containing 10% FBS for 24 h at 37 °C with 5% CO2. Then, cells were treated for 72 h with the required concentrations (3.125, 6.25, 12.5, 25, or 50 μM) of the compounds and reference drugs (He and DDP) dissolved with the vehicle DMSO. After that, the culture substrate was replaced with 200 μL of DMEM containing 20 μL of MTT solution at 5 mg/mL and incubated for 4 h. The supernatant was removed and the dissolved formazans precipitated with 120 μL of DMSO. Wells without drugs were used as blanks. A plate reader was used to determine the absorbance at 490 nm. The above steps were repeated three times. The IC50 values were defined as the concentration of the compound which gave 50% growth inhibition, and they were calculated using Graph Pad Prism 5. The inhibition rate was calculated using the following formula, where OD is the optical density:% inhibition = 1 − (Sample group OD/Control group OD) × 100%. (1)

Data set [2] concerns MCF-7 (human mammary cancer). The data set is described as follows: MTT cytotoxicity assay, MCF-7. As to conditions: read-out: Half Maximal Inhibitory Concentration (IC50) MCF-7. In kind it is cell-based. How it is done: as §1
The subject of data set [3] is H9c2 (murine heart myoblast). Put plainly: MTT toxicity evaluation, H9c2. In kind it is cell-based. As to conditions: non-tumor cells, read-out: Half Maximal Inhibitory Concentration (IC50) H9c2. On the procedure: as §1
Data set [4] relates to HepG2 (human hepatocellular carcinoma). Put plainly: MTT cytotoxicity assay, HepG2. As to conditions: MTT, 72 h treatment, read-out: Half Maximal Inhibitory Concentration (IC50) HepG2. In kind it is cell-based. How it is done:
as §1

In data set [5] the test system is A549 (human non-small-cell lung cancer). The data set is described as follows: MTT cytotoxicity assay, A549. The class given is cell-based. As to conditions: read-out: Half Maximal Inhibitory Concentration (IC50) A549. How it is done: as §1
The mark [6] stands for this setting: Homo sapiens, MCF7, 72 h treatment.
The mark [7] stands for this setting: Homo sapiens, A549, 72 h treatment.

In turn, `CC1(C)CC[C@]2(C(=O)OCc3cnccn3)CC[C@]3(C)C(=CCC4[C@@]5(C)CC[C@H](O)[C@@](C)(CO)C5CC[C@]43C)C2C1` (stereo partly drawn) [Compound 1, Pyrazin-2-ylmethyl(4aS,6aS,6bR,9R,10S,12aR)-10-hydroxy-9-(hydroxymethyl)-2,2,6a,6b,9,12a-hexamethyl-1,3,4,5,6,6a,6b,7,8,8a,9,10,11,12,12a,12b,13,14b-octadecahydropicene-4a(2H)-carboxylate] yielded a melting point of 146.8 °C. Also, the IC50 in data set [1] (Canis lupus familiaris, MDCK) came to 18.1 ± 0.25 µM. Also, the IC50 in data set [2] (setting [6]) was found to be 16.05 ± 0.01 µM. In data set [3] (H9c2, 72 h treatment), the IC50 turned out to be 14.7 ± 0.51 µM. In addition, in data set [4] (Homo sapiens, HepG2), the IC50 is 18.79 ± 0.04 µM. Further, the IC50 in data set [5] (setting [7]) came to 17.6 ± 0.37 µM.
On to `Cc1cncc(COC(=O)[C@]23CCC(C)(C)CC2C2=CCC4[C@@]5(C)CC[C@H](O)[C@@](C)(CO)C5CC[C@@]4(C)[C@]2(C)CC3)n1` (stereo partly drawn) [Compound 2, (6-Methylpyrazin-2-yl)methyl(4aS,6aS,6bR,9R,10S,12aR)-10-hydroxy-9-(hydroxymethyl)-2,2,6a,6b,9,12a-hexamethyl-1,3,4,5,6,6a,6b,7,8,8a,9,10,11,12,12a,12b,13,14b-octadecahydropicene-4a(2H)-carboxylate], for which the melting point was determined as 107 °C. For the same compound, in data set [1] (Canis lupus familiaris, MDCK), the IC50 was found to be 26.7 ± 1.64 µM. For the same compound, the IC50 in data set [2] (setting [6]) stood at 15.8 ± 0.22 µM. In addition, in data set [3] (H9c2, 72 h treatment), the IC50 was found to be 25.1 ± 0.43 µM. Also, in data set [4] (Homo sapiens, HepG2), the IC50 is 27.2 ± 1.82 µM. The IC50 in data set [5] (setting [7]) amounted to 20.6 ± 0.29 µM.
Take `Cc1cnc(COC(=O)[C@]23CCC(C)(C)CC2C2=CCC4[C@@]5(C)CC[C@H](O)[C@@](C)(CO)C5CC[C@@]4(C)[C@]2(C)CC3)cn1` (stereo partly drawn) [Compound 3, (5-Methylpyrazin-2-yl)methyl(4aS,6aS,6bR,9R,10S,12aR)-10-hydroxy-9-(hydroxymethyl)-2,2,6a,6b,9,12a-hexamethyl-1,3,4,5,6,6a,6b,7,8,8a,9,10,11,12,12a,12b,13,14b-octadecahydropicene-4a(2H)-carboxylate]: the melting point was 170.3 °C. Moreover, in data set [1] (Canis lupus familiaris, MDCK), the IC50 was determined as 18.4 ± 3.76 µM. Moreover, the IC50 in data set [2] (setting [6]) came to 16.8 ± 9.25 µM. Further, in data set [3] (H9c2, 72 h treatment), the IC50 was greater than 30 µM. For the same compound, the IC50 in data set [4] (Homo sapiens, HepG2) was found to be 18.9 ± 0.35 µM. Besides, in data set [5] (setting [7]), the IC50 is 15 ± 0.35 µM.
Regarding `Cc1nccnc1COC(=O)[C@]12CCC(C)(C)CC1C1=CCC3[C@@]4(C)CC[C@H](O)[C@@](C)(CO)C4CC[C@@]3(C)[C@]1(C)CC2` (stereo partly drawn) [Compound 4, (3-Methylpyrazin-2-yl)methyl(4aS,6aS,6bR,9R,10S,12aR)-10-hydroxy-9-(hydroxymethyl)-2,2,6a,6b,9,12a-hexamethyl-1,3,4,5,6,6a,6b,7,8,8a,9,10,11,12,12a,12b,13,14b-octadecahydropicene-4a(2H)-carboxylate], the melting point turned out to be 170.4 °C. For the same compound, the IC50 in data set [1] (Canis lupus familiaris, MDCK) was 26.1 ± 1.02 µM. For the same compound, the IC50 in data set [2] (setting [6]) was found to be 17.3 ± 0.48 µM. The IC50 in data set [3] (H9c2, 72 h treatment) turned out to be 20.4 ± 2.24 µM. Besides, the IC50 in data set [4] (Homo sapiens, HepG2) turned out to be 25.5 ± 1.4 µM. Besides, the IC50 in data set [5] (setting [7]) is 17.1 ± 1.06 µM.
As for `CC1(C)CC[C@]2(C(=O)OCCCCCl)CC[C@]3(C)C(=CCC4[C@@]5(C)CC[C@H](O)[C@@](C)(CO)C5CC[C@]43C)C2C1` (stereo partly drawn) [Compound 20], the IC50 in data set [1] (Canis lupus familiaris, MDCK) was greater than 30 µM; in data set [2] (setting [6]), greater than 30 µM; in data set [3] (H9c2, 72 h treatment), greater than 30 µM; in data set [4] (Homo sapiens, HepG2), greater than 30 µM; in data set [5] (setting [7]), greater than 30 µM.
For `N.N.[Cl][Pt][Cl]` [DDP, cisplatin, reference compound], the IC50 in data set [1] was determined as 9.97 ± 1.12 µM; in data set [2] (72 h treatment), 5.17 ± 0.28 µM; in data set [3] (72 h treatment), 5.31 ± 0.26 µM; in data set [4], 3.42 ± 0.68 µM; in data set [5] (72 h treatment), 3.85 ± 0.63 µM.
Take `CC1(C)CC[C@]2(C(=O)O)CC[C@]3(C)C(=CC[C@@H]4[C@@]5(C)CC[C@H](O)[C@@](C)(CO)[C@@H]5CC[C@]43C)[C@@H]2C1` [He, Hederagenin]: the IC50 in data set [1] (Canis lupus familiaris, MDCK) was greater than 50 µM; in data set [2] (setting [6]), greater than 50 µM; in data set [3] (H9c2, 72 h treatment), greater than 50 µM; in data set [4] (Homo sapiens, HepG2), greater than 50 µM; in data set [5] (setting [7]) it was greater than 50 µM.

For the origin of these results see PMC6213900, “Design, Synthesis, and Cytotoxic Analysis of Novel Hederagenin–Pyrazine Derivatives Based on Partial Least Squares Discriminant Analysis” (International Journal of Molecular Sciences, 2018).
